Here are results for six compounds from paper PMC13053910, “Covalent Protein Inhibitors via Tyrosine and Tryptophan Conjugation with Cyclic Imine Mannich Electrophiles” (Angewandte Chemie (International Ed. in English), 2026).

Data set [1] can be described thus: Reaction of cyclic imine Mannich or sulfur fluoride electrophiles with Ac-Tyr-NHMe (HPLC, LC/MS). The class given is physicochemical. How it is done:
To identify an appropriate warhead, we synthesized or purchased a collection of cyclic imines and incubated them with N‐acetyl‐L‐tyrosine methylamide (Ac‐Tyr‐NHMe) in PBS pH 7 at 37 °C (Table 1). The reactivity was quantified by UV integration on HPLC with LC/MS confirmation of product identity (Figure S1). […] The hydrolysis kinetics of imine 2 were characterized at pD 6 and 7.5 by NMR (Figure S3). […] The Mannich reaction mechanism involves a charged iminium intermediate, and the reaction is frequently catalyzed by Bronsted acids.^[ [36], [37] ^]
Figure 2 Second‐order rate constants for select cyclic imines and a sulfonyl fluoride with aromatic nucleophiles. Reactions were conducted under pseudo‐first‐order conditions with an excess of one reactant, as indicated. The reduction in the concentration of the limiting reactant was measured at various time points by HPLC analysis.
Figure S2: Second order rate constant determination. Reaction of (A) imine 1 (5 mM) with N-Ac-Tyr-NHMe (100 mM) at 37 °C or (B) at R.T. (C) imine 2 (5 mM) with N-Ac-Tyr-NHMe (100 mM) at 37 °C (D) imine 1 (5 mM) with indole-3-butyrate (100 mM) at 37 °C (E) imine 1 (10 mM) with 1 mM 1H-pyrrole-1-propionate (F) iminium 5 (5 mM) with N-Ac-Tyr-NHMe (100 mM) at 37 °C (G) imine 4 (5 mM) with N-Ac-Tyr-NHMe (100 mM) at 37 °C. (H) imine 11 (5 mM) with N-Ac-Tyr-NHMe (100 mM) at 37 °C. (I) imine 13 (5 mM) with N-Ac-Tyr-NHMe (100 mM) at 37 °C.
5.1 General procedure for determination of second order rate constants N-acetyl-l-tyrosine methyl amide (Ac-Tyr-NHMe) (100 mM) was incubated with 5 mM imine 1 in PBS (pH 7) at 37 °C or R.T..

Data set [2] can be described thus: Stability of warheads and inhibitors (solid, PBS, hydrolysis). The class given is physicochemical. How it is done:
(§1) To be suitable for chemical probe and therapeutic applications, the warhead should show good stability. In general, we found the iminolactam warheads to be quite stable. Compound 1 was stable as a solid at room temperature for over 3 months. […] After 24‐h in aqueous buffer, compounds were treated with sodium cyanoborohydride. […] The synthetic strategy of in situ formation of imines by periodate treatment was pursued to avoid concerns of warhead reactivity with the ligand itself to either the peptide backbone or the phenoxyphenyl aryl group. This appears to have been unnecessary, at least for the iminolactam warhead. […] The more reactive ester imine may be forming semi‐stable cyclized products with the amide backbone, which have been observed previously with peptide aldehydes.^[ [51], [52] ^] Due to these issues, we selected compound P1b for further characterization.

Data set [3] is described as follows: Stability in bovine serum-containing cell media (LC/MS). The class given is in vitro ADME. The note with it: 20 µM, DMEM with 15% FBS, 24 h, 37 °C. The protocol: as §1
Figure S17. Stability of cyclic imine inhibitors to serum-containing cell culture media. […] The protein fraction was then precipitated with addition of 2 volumes of 1:1 EtOH:acetonitrile and overnight incubation at -20 °C. Samples were centrifuged 16,000 g for 30 minutes. Supernatants were filtered through a 0.5 micro spin filter and evaporated with a speed vacuum. The compounds were resuspended in PBS and analzyed by LC/MS. […] Overlaid spectra of UV at 215 nm are shown and are representative of 3 replicates.

The target of a further data set is T1, eDHFR wt (Escherichia coli, UniProt P0ABQ4).
T1 construct: made in house; host or cells: E. coli (BL21 CodonPlus RIL or Rosetta 2), pET-28b(+)
Description: Covalent labeling of eDHFR wild type by LC/MS. The data set is classed as binding, E. coli. The note with it: 10 µM protein, 10 µM compound, overnight, 37 °C.

A further data set has as its target T2, eDHFR L28Y (Escherichia coli, UniProt P0ABQ4, L28Y).
T2 construct: made in house; host or cells: E. coli (BL21 CodonPlus RIL or Rosetta 2), pET-28b(+)
Description: Covalent labeling of eDHFR L28Y by LC/MS. The class given is binding, E. coli. An excerpt:
(§2) Similarly, we prepared eDHFR tyrosine and tryptophan mutants at position 28 to assess labeling with TMP‐Im (Figure 3b). […] We conducted trypsin digestion of the labeled L28Y protein and localized the modification to the intended tyrosine by MS/MS fragmentation (Figure S9A). To assess selectivity over thiols, we tested labeling of the cysteine mutant. […] This labeling was reversed with GSH treatment, which is consistent with the reversibility of thioaminal formation (Figure S10).
(§3) Reactions with thiol mutant L28C were conducted in the presence of 5 mM glutathione and 5 mM TCEP. The observed mass differences of labeled and unlabeled proteins agree with the expected mass change of 428 Da.
Figure S10. Ligand directed labeling in the presence of thiols. […] B) TMP-Im (10 µM) was incubated with eDHFR L28C (10 µM) overnight in the absence (left and center) or presence of 5 mM GSH with 5 mM TCEP. For the center panel, after the labeling reaction, GSH (5 mM) was added and allowed to incubated overnight.

Another data set addresses T3, eDHFR L28W (Escherichia coli, UniProt P0ABQ4, L28W).
T3 construct: made in house; host or cells: E. coli (BL21 CodonPlus RIL or Rosetta 2), pET-28b(+)
Description: Covalent labeling of eDHFR L28W by LC/MS. The class given is binding, E. coli. The note with it: 10 µM protein, 10 µM compound, overnight, 37 °C.
Description: as §2, §3

The next data set deals with T4, eDHFR L28C (Escherichia coli, UniProt P0ABQ4, L28C).
T4 construct: made in house; host or cells: E. coli (BL21 CodonPlus RIL or Rosetta 2), pET-28b(+)
Description: Covalent labeling of eDHFR L28C by LC/MS. The data set is classed as binding, E. coli.
Description: as §2, §3
Figure S10. Ligand directed labeling in the presence of thiols. A) TMP-Im (10 µM) was incubated with eDHFR L28Y (10 µM) overnight at RT in the absence (left) or presence of 5 mM GSH with 5 mM TCEP. B) TMP-Im (10 µM) was incubated with eDHFR L28C (10 µM) overnight in the absence (left and center) or presence of 5 mM GSH with 5 mM TCEP. For the center panel, after the labeling reaction, GSH (5 mM) was added and allowed to incubated overnight.

Data set [4] can be described thus: Reaction of imine 1 with indole-3-butyrate (tryptophan mimic), rate constant. The class given is physicochemical. The note with it: imine 5 mM, indole-3-butyrate 100 mM, 37 °C. The protocol: (§4) Figure 2 Second‐order rate constants for select cyclic imines and a sulfonyl fluoride with aromatic nucleophiles. Reactions were conducted under pseudo‐first‐order conditions with an excess of one reactant, as indicated. The reduction in the concentration of the limiting reactant was measured at various time points by HPLC analysis. Rates of imine 1 with N‐Ac‐Tyr‐NMe, indole‐3‐butyric acid, and 1H‐pyrrole‐1‐propionic acid and compounds 4, 11, and 13 with N‐Ac‐Tyr‐NMe were measured. […]
(§5) To assess the selectivity for tyrosine side chains, we tested the reactivity of 1 with additional compounds, including β‐mercaptoethanol, imidazole, isopropanol, n‐butylamine, propionic acid, 3‐methyl indole, and N‐ethyl pyrrole. […] While partially stable under LC/MS conditions, the N,S‐thioaminal product is readily reversible.^[ [41] ^] […] We determined a second‐order rate constant of 5.9 × 10^−2 M^−1 s^−1 for the reaction of 1 with 1H‐pyrrole‐1‐propionate (Figures 2 and S2). […]

The nature of data set [5]: Reaction of imine 1 with 1H-pyrrole-1-propionate (pyrrolated lysine mimic), rate constant. The note with it: imine 10 mM, 1 mM 1H-pyrrole-1-propionate. The class given is physicochemical. The protocol: as §4, §5
A further data set deals with T5, CBX8 chromodomain (ChD) (Homo sapiens, UniProt Q9HC52).
T5 construct: CBX chromodomain constructs (addgene plasmid #25158 (CBX2), and #62514 (CBX8, provided by Cheryl Arrowsmith)); 6His; host or cells: E. coli (BL21 CodonPlus RIL or Rosetta 2)
T5 sequence (Q9HC52 11-69 limits assumed): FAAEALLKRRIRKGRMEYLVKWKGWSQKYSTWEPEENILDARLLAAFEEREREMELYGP
Description: Non-directed labeling of CBX8 ChD with cyclic imine 1 (mass spectrometry). The class given is binding. The note with it: 1 (50 µM), CBX8 ChD (50 µM), 10 h. An excerpt: Our interest in this chemistry was to improve inhibitors of the chromodomains (ChD) of the CBX family of epigenetic proteins, which have proven challenging to inhibit selectively or with drug‐like small molecules.^[ [47] ^] The CBX ChDs bind a trimethylated lysine (Kme3) side chain on histone tails via cation‐pi interactions with the aromatic cage in the ChD. Our initial hypothesis was that the aromatic cage tryptophan residues would show increased reactivity to Mannich electrophiles, as they function naturally to donate electron density to the electron‐poor methyl groups of Kme3. To test this, 1 (50 µM) was incubated for 10 h with the CBX8 chromodomain (ChD) (50 µM), and labeling was assessed by mass spectrometry (Figure S11).
Figure S11. […] Cyclic imine 1 ([…]) was incubated with 50 µM CBX8 ChD in PBS (pH=7, 0.02% Tween20) buffer at R.T. for 16 hours overnight. Labeled protein was precipitated using cold MeOH:CHCl3 at the ratio of MeOH:CHCl3:Protein = 3:0.5:1, followed with two methanol washes. Protein pellet was air dried after the last wash resuspensed in water containing 0.1% formic acid and 100 mM ammonium acetate. Protein labeling was characterized by LC/MS (Unmodified CBX8 control is indicated in red, and CBX8 labeled with cyclic imine is indicated in green).

Setting [6] is: electrophile 5 mM, N‐acetyl‐l‐tyrosine methyl amide 100 mM, PBS pH 7, 37 °C.

Regarding 2-hydroxyquinoxaline [compound 4], in data set [1] (buffer, pH 7), the “reactivity (t1/2)” value came out at 6.1 ± 0.2 h.
Regarding `COc1cc(Cc2cnc(N)nc2N)cc(OC)c1OCCCCN1CCN=CC1=O` [TMP‐Im], the “stability to long‐term incubation in PBS” value in data set [2] (24 h in aqueous buffer, then sodium cyanoborohydride, mass spectrometry) was “stability over the 24 h”. Moreover, the “stability in bovine serum‐containing cell media” value in [3] was “minimal loss of compounds to the precipitated protein fraction or degradation”; in data set [3] (listed as TMP-Im), “no degradation or loss to the protein fraction”. On eDHFR wt, the “covalent labeling of eDHFR wild type” value is reported as “no labeling”. The “covalent labeling of eDHFR L28Y” value at eDHFR L28Y (10 µM protein, 10 µM compound, overnight, 37 °C) is listed as “covalent labeling”. For the same compound, the “effect of GSH on labeling of eDHFR L28Y” value on eDHFR L28Y (presence of 5 mM GSH) was “only a slight reduction in reaction conversion”. Moreover, the “covalent labeling of eDHFR L28W” value at eDHFR L28W is “covalent labeling”. For the same compound, the “labeling of eDHFR L28C cysteine mutant” value on eDHFR L28C (absence of additional thiols, TCEP as reductant) is “A small amount of labeling”; at eDHFR L28C (in the presence of 5 mM glutathione (GSH) and 5 mM TCEP), “no detectable labeled protein”.
In the case of `O=C1C=NC2CCCCC2N1` (stereo not shown) [compound 1], the “reactivity (t1/2)” value in [1] (setting [6]) is 8 ± 0.3 h. For the same compound, in [1] (pseudo‐first‐order conditions, PBS pH 7, 37 °C), the “second‐order rate constant k2 with N‐Ac‐Tyr‐NHMe” value was determined as 0.00024 M⁻¹ s⁻¹. Moreover, the “second‐order rate constant k2 with indole‐3‐butyrate” value in data set [4] came out at 0.00011 M⁻¹ s⁻¹. In addition, the “second‐order rate constant k2 with 1H‐pyrrole‐1‐propionate” value in data set [5] worked out at 0.059 M⁻¹ s⁻¹. In data set [2] (solid, room temperature), the “stable as a solid at room temperature” value is listed as “over 3 months”. The “labeling of CBX8 ChD by imine alone” value on CBX8 chromodomain (ChD) was “distribution of unlabeled, singly, doubly, and triply labeled protein indicative of random labeling”.
For the compound `O=C1C=N[C@H]2CCCC[C@@H]2O1` [compound 2], the “reactivity (t1/2)” value in data set [1] (electrophile 5 mM, Ac-Tyr-NHMe 100 mM, PBS pH 7, 37 °C, competing hydrolysis) is recorded as “∼40 mins ^b)”.
In the case of `O=S1(=O)N=Cc2ccccc21` [compound 11], the “reactivity (t1/2)” value in data set [1] (setting [6]) was found to be 2.4 ± 0.1 h.
Same read-out and setting: under `O=C(O)c1ccc(OS(=O)(=O)F)cc1` [compound 14, reference compound] stands “∼48 h”.
